Legend:
mononucleosomes = mononucleosomes (Homo sapiens, UniProt O60814+P04908); assay: Peptide competition experiments; type: binding; settings: SSX 34aa versus SMARCB1 aa351-385
[1] = test system: recombinant mononucleosome; assay: ATPase assay (ADP-Glo); type: biochemical; settings: 0-40 min
Method: ATPase consumption assays were performed using the ADP-Glo Kinase Assay kit (Promega). The same conditions as the REAA nucleosome remodeling assay described above were used. Following incubation with desired substrates for 40 min at 37° C., 1× volume of ADP-Glo Reagent was used to quench the reaction and incubated at RT for 40 min. 2× volume of the Kinase Detection Reagent was then added and incubated at RT for 1 h. Luminescence readout was recorded. Substrates used for this assay were purified recombinant mononucleosome (EpiDyne Nucleosome Remodeling Assay Substrate ST601-GATC1, EpiCypher, Cat #16-4101). Nuclear extract material was used at 150ug for each ARID1A-IP using ARID1A antibody (Cell Signaling, Cat #12354S).

histone proteins = assay: Purification of mSWI/SNF (BAF) complexes from NE and CHR fractions, colloidal blue staining; design: species or system human
Method: Stable HEK293T cell lines expressing by lentiviral infection HA-SS18 WT or HA-SS18-SSX1 were grown in 150 mm dishes. Complexes were purified using methods previously described with a few modifications (Mashtalir et al. (2014) Mol. Cell 54:392-406). Confluent plates were scraped to remove cells and cells were washed with PBS. Cell suspension was spun down by centrifugation at 3000 rpm for 5 minutes at 4° C. and pellets were resuspended in hypotonic buffer (10 mM Tris HCl pH 7.5, 10 mM KCl, 1.5 mM MgCL2, 1 mM DTT, 1 mM PMSF) and incubated on ice for 5 minutes. Following incubation, cell suspension was spun down by centrifugation at 5000 rpm for 5 minutes at 4° C., and pellets were resuspended in 5× volume of fresh hypotonic buffer (with protease inhibitor cocktail, Roche C756U27) and then cells were homogenized using a Dounce homogenizer (glass). Cell suspension was layered onto hypotonic buffer sucrose cushion made with 30% sucrose w/v, spun down by centrifugation at 5000 rpm for 1 hour at 4° C. followed by removal of the cytosol-containing layer. The nuclei containing pellets were resuspended in high salt buffer (50 mM Tris HCl pH 7.5, 300 mM KCl, 1 mM MgCL2, 1 mM EDTA, 1 mM, 1% NP40, 1 mM DTT, 1 mM PMSF and protease inhibitor cocktail) and then the homogenate rotated for 1 hour at 4° C. […]

[2] = test system: H2A K119Ub-modified nucleosomes; assay: Pull down of endogenous HA-SS18- or HA-SS18-SSX-bound BAF complexes with WT or H2A K119Ub-modified nucleosomes; type: binding; settings: endogenously purified complexes
Method: Difference is the score calculated between SYO1 (SS18-SSX+) cells and SW982 cells (negative for fusion, histologic mimic). mSWI/SNF, PRC1, PRC2 members are shown. […] H3 immunoblot is used for assessment of nucleosome binding to GST-SSX. […] SMARCA4 and H3 immunoblots are shown. FIG. 11G has two panels. […] Peptides were incubated −/+presence of USP2 treatment. Error bars=st.dev. […] H3 immunoblot is used for assessment of nucleosome binding to GST-SSX. […] Data for GST-SSX with WT nucleosomes and H2A K119Ub nucleosomes are shared between FIG. 11E.
SS cell lines containing the SS18-SSX fusion oncoprotein are highlighted in red. […] Difference is the score calculated between SYO1, Yamato-SS, SCS241 (SS18-SSX+) cells and SW982 cells (negative for fusion, histologic mimic). Blue indicates enriched for dependency. mSWI/SNF, PRC1, PRC2 members are shown. […] Synovial sarcoma cell lines are indicated in pink; all other cell lines are represented in gray. […] (Project DRIVE; available on the World Wide Web at oncologynibr.shinyapps.io/drive/). SS cell lines containing the SS18-SSX fusion oncoprotein are highlighted in red. […] H3 immunoblot is used for assessment of nucleosome binding to GST-SSX. […] SMARCA4 and H3 immunoblots are shown. […] Identified proteins labeled (Left). WB of the samples on the right indicating presence of histone H3 (Right).

[3] = test system: BAF complex subunits and histone proteins; assay: Mass spectrometry proteomics of purified HA-SS18 WT and HA-SS18-SSX1 complexes (Tables 5A-5E); design: species or system human; settings: MS of HA purifications
Method: Confluent plates were scraped to remove cells and cells were washed with PBS. Cell suspension was spun down by centrifugation at 3000 rpm for 5 minutes at 4° C. and pellets were resuspended in hypotonic buffer (10 mM Tris HCl pH 7.5, 10 mM KCl, 1.5 mM MgCL2, 1 mM DTT, 1 mM PMSF) and incubated on ice for 5 minutes. Following incubation, cell suspension was spun down by centrifugation at 5000 rpm for 5 minutes at 4° C., and pellets were resuspended in 5× volume of fresh hypotonic buffer (with protease inhibitor cocktail, Roche C756U27) and then cells were homogenized using a Dounce homogenizer (glass). Cell suspension was layered onto hypotonic buffer sucrose cushion made with 30% sucrose w/v, spun down by centrifugation at 5000 rpm for 1 hour at 4° C. followed by removal of the cytosol-containing layer. The nuclei containing pellets were resuspended in high salt buffer (50 mM Tris HCl pH 7.5, 300 mM KCl, 1 mM MgCL2, 1 mM EDTA, 1 mM, 1% NP40, 1 mM DTT, 1 mM PMSF and protease inhibitor cocktail) and then the homogenate rotated for 1 hour at 4° C. Homogenates were then spun down by centrifugation at 20,000 rpm for 1 hour at 4° C. in a SW32Ti rotor (Beckman Coulter). The soluble proteins, consisting of the nuclear extract (NE) fraction, was separated from the insoluble chromatin pellet, consisting of the chromatin (CHR) fraction. […]

nucleosomes = assay: Restriction enzyme accessibility assay (REAA) nucleosome remodeling assay; type: biochemical; settings: 37 degrees C, 0-40 min
Method: SMARCA4 (BRG1) levels of the ammonium sulfate nuclear extracts were normalized via BCA protein quantification and Silver Stain analyses for HA-SS18 and HA-SS18-SSX conditions. Protein was diluted for final reaction concentration of 150 μg/mL in REAA buffer (20 mM HEPES, pH 8.0, 50 mM KCl, 5 mM MgCl2) containing 0.1 mg/mL BSA, 1 mM DTT, 20 nM nucleosomes (EpiDyne Nucleosome Remodeling Assay Substrate ST601-GATC1, EpiCypher). The REAA mixture was incubated at 37° C. for 10 min, and reaction was initiated using 1-2 mM ATP (Ultrapure ATP, Promega) and 0.005 U/mL DpnJJ Restriction Enzyme (New England Biolabs). The REAA reaction mixture was quenched with 20-24 mM EDTA and placed on ice. Proteinase K (Ambion) was added at 100 mg/mL for 30-60 min, followed by either AMPure bead DNA purification and D1000 HS DNA ScreenTape Analysis (Agilent) or mixing with GelPilot® Loading Dye (QIAGEN) and loading onto 8% TBE gel (Novex 8% TBE Gels, Thermo Fisher). TBE gels were stained with either SYBR®-Safe (Invitrogen) or Syto®-60 Red Fluorescent Nucleic Acid Stain (Invitrogen), followed by imaging with UV light on an Alpha Innotech AlphaImager™ 2200 and/or with 652 nm light excitation on a Li-Cor Odyssey® CLx imaging system (LI-COR).

[4] = test system: mammalian mononucleosomes from HEK293T cells; assay: Protein and peptide pull downs with mammalian mononucleosomes; type: binding, human
Method: (§1) The flow through was removed, the immobilized bait was incubated with 1-2 μg of purified mammalian mono-nucleosomes from HEK293T cells, recombinant mono-nucleosomes (EpiCypher, 16-0006), recombinant H2AK119Ub mono-nucleosomes (EpiCypher, 16-0020) or recombinant protein for 3 hours at 4° C., and the beads were washed 3× with EB150 buffer and then eluted in 2×LDS with 200 mM DTT with heating at 95° C. for 5 minutes. The pull downs were then visualized by immunoblot analysis or colloidal blue staining.
Mammalian mononucleosomes were purified from HEK293T cells similar to as previously described (Mashtalir et al. (2014) Mol. Cell 54:392-406). Cells were scraped from plates, washed with cold PBS, and centrifuged at 5,000 rpm for 5 min at 4° C. Pellets were resuspended in hypotonic buffer (EBO: 50 mM Tris HCl, pH 7.5, 1 mM EDTA, 1 mM MgCl2, 0.1% NP40 supplemented with 1 mM DTT, 1 mM PMSF, and protease inhibitor cocktail (Roche, C756U27) and incubated for 5 min on ice. The suspension was centrifuged at 5,000 rpm for 5 min at 4° C., and pellets were resuspended in 5 volumes of EB420 (EBO: 50 mM Tris HCl, pH 7.5, 420 mM NaCl, 1 mM MgCl2, 0.1% NP40 with supplemented with 1 mM DTT and 1 mM PMSF containing protease inhibitor cocktail (Roche, C756U27). Homogenate incubated on rotator for 1 hour at 4° C. The supernatant was then centrifuged at 20,000 rpm (30,000×g) for 1 hour at 4° C. using a SW32Ti rotor. Supernatant was then discarded and chromatin pellet was washed in MNAse buffer (20 mM Tris-HCl pH 7.5, 100 mM KCl, 2 mM MgCl2, 1 mM CaCl2, […] sucrose, 0.1% NP-40, and protease inhibitor cocktail) three times. Following MNase treatment (3 U/mL for 30 min at room temperature, Sigma-Aldrich), the reaction was quenched with 5 mM of EGTA and 5 mM of EDTA. The samples were then centrifuged at 20,000×g for 1 hour at 4° C. to obtain the soluble chromatin fraction. Soluble chromatin fraction was loaded onto 10-30% glycerol gradient (Mashtalir et al. (2014) Mol. Cell 54:392-406) and fractions containing mononucleosomes were isolated and concentrated using centrifugal filter (Amicon, EMD Millipore).

[5] = test system: WT, H2AUb or H2BUb nucleosomes; assay: AlphaLisa binding assay with biotinylated nucleosomes; settings: 10 nM biotinylated nucleosomes
[6] = test system: acidic patch mutant nucleosomes (D90N, E92K, and E113K); assay: GST-SSX pull down with acidic patch mutant nucleosomes; type: binding; settings: H2A D90N, H3 immunoblot
Method: as §1

[7] = test system: recombinant H2AK119Ub mono-nucleosomes; assay: Pull downs with WT or H2A K119Ub nucleosomes; type: binding
Method: as §1

[8] = test system: unmodified or H2A K119Ub-modified nucleosomes; assay: Fluorescence polarization assay; type: binding; settings: H2A K119Ub versus unmodified nucleosomes

SMARCB1 C-term alpha helix: peptide of the SMARCB1 C-terminal alpha helical domain, aa 351-385
reciprocal competition for nucleosome acidic patch binding (mononucleosomes): unable to outcompete SSX from binding the nucleosomes

SS18-SSX-bound BAF complexes: BAF complexes purified via HA-tagged SS18-SSX expressed in HEK-293T cells
ATPase activity [1]: slightly lower than that of WT SS18-bound complexes
core histone proteins captured (histone proteins): captured near-stoichiometric amounts of core histone proteins H2A, H2B, H3, and H4
binding of H2A K119Ub-modified versus unmodified nucleosomes by BAF complexes [2]: enriched for binding of recombinant H2A K119Ub-modified nucleosomes over unmodified nucleosomes
peptides corresponding to the H2A K119Ub mark captured [3]: captured only in the purifications of SS18-SSX-bound complexes
remodeling efficiency (nucleosomes): slightly lower than that of WT SS18-bound complexes

GST-SSX 78aa: GST-tagged recombinant C-terminal 78 residues of SSX1 (aa 111-188)
nucleosome binding in pull-down ([4]; mammalian mononucleosomes): sufficient for its nucleosomal interactions
binding to mammalian versus recombinant, unmodified nucleosomes ([4]; pull-down): stronger than binding to recombinant, unmodified nucleosomes
affinity to H2A K119Ub-decorated nucleosomes, AlphaLisa [5]: significantly higher affinity to H2A K119Ub-decorated nucleosomes relative to unmodified nucleosomes or H2B K120Ub nucleosomes
binding to acidic patch-mutant nucleosomes [6]: near complete loss of SSX binding
affinity to H2A K119Ub-decorated nucleosomes, pulldown ([7]; H3 immunoblot): significantly higher affinity to H2A K119Ub-decorated nucleosomes relative to unmodified nucleosomes or H2B K120Ub nucleosomes
binding across differentially-marked recombinant and mammalian nucleosomes ([7]; screen of modified mononucleosomes): preferentially bound to H2A K119Ub and mammalian nucleosomes over unmodified nucleosomes or nucleosomes with other histone marks

fluoro-labeled SSX: fluorescently-labeled SSX1 (78aa), in place of GST tag
binding affinity by fluorescence polarization [8]: higher binding affinity to H2A K119Ub-decorated nucleosomes compared to unmodified nucleosomes

— patent US20250283871A1, “COMPOSITIONS AND METHODS FOR MODULATING THE INTERACTION BETWEEN SS18-SSX FUSION ONCOPROTEIN AND NUCLEOSOMES” (Dana-Farber Cancer Institute, Inc., priority 2020, published 2025)
